According to ChEMBL document CHEMBL4507260 (2021):

How the values were obtained:
Details in all cases: Compound concentration 1000.0 nM
[1] = target: Mitogen-activated protein kinase kinase kinase kinase 1 (Homo sapiens) (UniProt Q92918)
[2] = target: Fibroblast growth factor receptor 1 (Homo sapiens) (UniProt P11362)
[3] = target: Testis-specific serine/threonine-protein kinase 1 (Homo sapiens) (UniProt Q9BXA7)
[4] = target: Focal adhesion kinase 1 (Homo sapiens) (UniProt Q05397)
[5] = target: Serine/threonine-protein kinase WNK1 (Homo sapiens) (UniProt Q9H4A3)
[6] = tested on: Proto-oncogene tyrosine-protein kinase receptor Ret (Homo sapiens), P07949 [V804L]
[7] = target: Serine/threonine-protein kinase 32A (Homo sapiens) (UniProt Q8WU08)
[8] = target: Tyrosine-protein kinase Lck (Homo sapiens) (UniProt P06239)
Sequence of Tyrosine-protein kinase Lck (Homo sapiens) (P06239 2-509 limits assumed): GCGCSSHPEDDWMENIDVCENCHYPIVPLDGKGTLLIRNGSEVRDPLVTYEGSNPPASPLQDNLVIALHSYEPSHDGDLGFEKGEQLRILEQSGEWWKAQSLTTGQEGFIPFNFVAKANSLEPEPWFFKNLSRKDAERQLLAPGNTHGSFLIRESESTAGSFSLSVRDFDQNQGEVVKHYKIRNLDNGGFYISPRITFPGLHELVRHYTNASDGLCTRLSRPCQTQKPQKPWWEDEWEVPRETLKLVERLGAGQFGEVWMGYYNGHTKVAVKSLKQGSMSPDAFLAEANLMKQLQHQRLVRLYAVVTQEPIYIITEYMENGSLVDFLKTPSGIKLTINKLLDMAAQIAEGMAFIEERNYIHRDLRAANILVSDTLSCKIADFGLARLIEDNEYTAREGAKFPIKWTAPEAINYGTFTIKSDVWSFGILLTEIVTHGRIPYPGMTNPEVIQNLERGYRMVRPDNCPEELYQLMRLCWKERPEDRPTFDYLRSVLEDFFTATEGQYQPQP

[9] = target: Fibroblast growth factor receptor 2 (Homo sapiens) (UniProt P21802)
[10] = target: Ephrin type-B receptor 2 (Homo sapiens) (UniProt P29323)
[11] = target: Serine/threonine-protein kinase pim-1 (Homo sapiens) (UniProt P11309)
Sequence of Serine/threonine-protein kinase pim-1 (Homo sapiens) (P11309 whole entry, looked up): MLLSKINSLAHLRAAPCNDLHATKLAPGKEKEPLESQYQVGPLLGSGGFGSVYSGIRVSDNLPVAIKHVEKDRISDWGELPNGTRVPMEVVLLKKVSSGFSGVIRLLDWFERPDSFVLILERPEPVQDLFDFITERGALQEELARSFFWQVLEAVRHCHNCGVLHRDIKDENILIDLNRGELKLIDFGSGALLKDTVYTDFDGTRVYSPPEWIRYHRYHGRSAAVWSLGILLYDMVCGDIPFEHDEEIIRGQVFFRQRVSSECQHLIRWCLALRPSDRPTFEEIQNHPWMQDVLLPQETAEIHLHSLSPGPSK

[12] = tested on: Mast/stem cell growth factor receptor Kit (Homo sapiens), P10721 [D816V]
[13] = tested on: Epidermal growth factor receptor (Homo sapiens), P00533 [UNDEFINED MUTATION]
Sequence of Epidermal growth factor receptor (Homo sapiens), P00533 [UNDEFINED MUTATION] (P00533 whole entry, looked up, change not shown): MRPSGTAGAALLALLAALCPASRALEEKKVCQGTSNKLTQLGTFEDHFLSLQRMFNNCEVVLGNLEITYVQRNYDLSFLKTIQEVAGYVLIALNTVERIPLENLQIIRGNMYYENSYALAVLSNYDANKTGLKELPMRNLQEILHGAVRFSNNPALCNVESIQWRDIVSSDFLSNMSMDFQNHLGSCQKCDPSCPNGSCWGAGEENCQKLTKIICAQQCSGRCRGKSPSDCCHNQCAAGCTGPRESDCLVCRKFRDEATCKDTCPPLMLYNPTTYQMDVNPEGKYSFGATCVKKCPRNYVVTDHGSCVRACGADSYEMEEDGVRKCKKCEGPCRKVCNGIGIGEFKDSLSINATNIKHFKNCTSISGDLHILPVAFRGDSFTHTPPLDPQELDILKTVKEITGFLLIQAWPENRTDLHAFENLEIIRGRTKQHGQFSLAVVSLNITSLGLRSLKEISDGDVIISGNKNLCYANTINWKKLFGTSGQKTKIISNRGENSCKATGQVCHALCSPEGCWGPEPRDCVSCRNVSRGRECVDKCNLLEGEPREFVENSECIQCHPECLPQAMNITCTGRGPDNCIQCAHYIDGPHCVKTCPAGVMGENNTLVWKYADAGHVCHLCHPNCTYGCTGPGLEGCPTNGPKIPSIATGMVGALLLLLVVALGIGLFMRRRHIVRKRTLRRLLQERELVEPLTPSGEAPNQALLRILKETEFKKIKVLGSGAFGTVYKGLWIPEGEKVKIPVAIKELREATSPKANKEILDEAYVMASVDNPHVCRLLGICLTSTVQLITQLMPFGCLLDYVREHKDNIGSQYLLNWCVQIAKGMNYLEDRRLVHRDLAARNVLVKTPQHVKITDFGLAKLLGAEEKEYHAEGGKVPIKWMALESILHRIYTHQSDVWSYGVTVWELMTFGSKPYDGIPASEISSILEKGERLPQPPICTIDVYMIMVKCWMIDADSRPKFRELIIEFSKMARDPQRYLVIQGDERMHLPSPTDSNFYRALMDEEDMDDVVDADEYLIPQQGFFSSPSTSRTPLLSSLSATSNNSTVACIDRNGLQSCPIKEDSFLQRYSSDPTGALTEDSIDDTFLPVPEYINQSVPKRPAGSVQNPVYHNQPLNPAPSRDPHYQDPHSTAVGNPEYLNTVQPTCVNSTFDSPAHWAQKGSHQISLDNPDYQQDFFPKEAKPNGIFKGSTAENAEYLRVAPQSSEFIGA

[14] = target: Myosin-IIIb (Homo sapiens) (UniProt Q8WXR4)
[15] = tested on: Epidermal growth factor receptor (Homo sapiens), P00533 [UNDEFINED MUTATION]; remark: listed apart in the source
[16] = target: Bone morphogenetic protein receptor type-1B (Homo sapiens) (UniProt O00238)
[17] = target: Receptor-interacting serine/threonine-protein kinase 4 (Homo sapiens) (UniProt P57078)
[18] = target: Serine/threonine-protein kinase 4 (Homo sapiens) (UniProt Q13043)
[19] = target: Serine/threonine-protein kinase TAO3 (Homo sapiens) (UniProt Q9H2K8)
[20] = target: SRSF protein kinase 2 (Homo sapiens) (UniProt P78362)
[21] = tested on: Phosphatidylinositol 4,5-bisphosphate 3-kinase catalytic subunit alpha isoform (Homo sapiens), P42336 [I800L]
[22] = target: Calcium/calmodulin-dependent protein kinase kinase 1 (Homo sapiens) (UniProt Q8N5S9)
[23] = target: Mitogen-activated protein kinase kinase kinase 12 (Homo sapiens) (UniProt Q12852)
[24] = target: AP2-associated protein kinase 1 (Homo sapiens) (UniProt Q2M2I8)
Sequence of AP2-associated protein kinase 1 (Homo sapiens) (Q2M2I8 whole entry, looked up): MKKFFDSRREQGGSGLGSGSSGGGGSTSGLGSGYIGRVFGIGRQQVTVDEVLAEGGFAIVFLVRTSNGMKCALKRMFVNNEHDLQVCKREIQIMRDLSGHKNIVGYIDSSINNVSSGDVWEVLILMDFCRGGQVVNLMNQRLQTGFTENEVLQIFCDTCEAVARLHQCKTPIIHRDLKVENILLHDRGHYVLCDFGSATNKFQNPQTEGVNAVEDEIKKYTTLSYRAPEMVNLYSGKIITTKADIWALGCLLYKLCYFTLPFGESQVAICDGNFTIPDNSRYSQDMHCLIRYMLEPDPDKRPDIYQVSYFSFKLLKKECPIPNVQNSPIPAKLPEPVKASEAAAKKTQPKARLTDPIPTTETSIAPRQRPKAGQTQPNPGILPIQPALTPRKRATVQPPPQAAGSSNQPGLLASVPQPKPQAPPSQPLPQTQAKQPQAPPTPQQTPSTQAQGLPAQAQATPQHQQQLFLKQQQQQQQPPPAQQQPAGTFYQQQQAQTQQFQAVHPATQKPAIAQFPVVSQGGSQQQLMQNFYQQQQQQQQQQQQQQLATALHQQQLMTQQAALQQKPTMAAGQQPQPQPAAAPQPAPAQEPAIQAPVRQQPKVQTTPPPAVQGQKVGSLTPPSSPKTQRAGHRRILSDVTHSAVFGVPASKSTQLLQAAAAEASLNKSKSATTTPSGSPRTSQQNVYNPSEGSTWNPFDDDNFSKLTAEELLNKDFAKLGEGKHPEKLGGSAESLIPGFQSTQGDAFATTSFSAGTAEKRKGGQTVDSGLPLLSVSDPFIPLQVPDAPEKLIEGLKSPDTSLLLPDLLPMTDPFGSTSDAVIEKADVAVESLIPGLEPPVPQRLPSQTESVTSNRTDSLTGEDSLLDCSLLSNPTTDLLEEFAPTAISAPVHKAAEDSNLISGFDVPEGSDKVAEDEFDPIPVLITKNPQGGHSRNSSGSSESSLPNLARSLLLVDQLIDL

[25] = target: Serine/threonine-protein kinase N2 (Homo sapiens) (UniProt Q16513)
[26] = tested on: Tyrosine-protein kinase ABL1 (Homo sapiens), P00519 [T315I]
[27] = target: Cyclin-dependent kinase-like 1 (Homo sapiens) (UniProt Q00532)
[28] = target: Proto-oncogene tyrosine-protein kinase ROS (Homo sapiens) (UniProt P08922)
[29] = target: Dual specificity mitogen-activated protein kinase kinase 4 (Homo sapiens) (UniProt P45985)
[30] = target: Phosphatidylinositol 4-phosphate 5-kinase type-1 alpha (Homo sapiens) (UniProt Q99755)
[31] = target: Tyrosine-protein kinase ITK/TSK (Homo sapiens) (UniProt Q08881)
[32] = target: Serine/threonine-protein kinase ICK (Homo sapiens) (UniProt Q9UPZ9)
[33] = target: Mitogen-activated protein kinase 6 (Homo sapiens) (UniProt Q16659)
Sequence of Mitogen-activated protein kinase 6 (Homo sapiens) (Q16659 whole entry, canonical isoform): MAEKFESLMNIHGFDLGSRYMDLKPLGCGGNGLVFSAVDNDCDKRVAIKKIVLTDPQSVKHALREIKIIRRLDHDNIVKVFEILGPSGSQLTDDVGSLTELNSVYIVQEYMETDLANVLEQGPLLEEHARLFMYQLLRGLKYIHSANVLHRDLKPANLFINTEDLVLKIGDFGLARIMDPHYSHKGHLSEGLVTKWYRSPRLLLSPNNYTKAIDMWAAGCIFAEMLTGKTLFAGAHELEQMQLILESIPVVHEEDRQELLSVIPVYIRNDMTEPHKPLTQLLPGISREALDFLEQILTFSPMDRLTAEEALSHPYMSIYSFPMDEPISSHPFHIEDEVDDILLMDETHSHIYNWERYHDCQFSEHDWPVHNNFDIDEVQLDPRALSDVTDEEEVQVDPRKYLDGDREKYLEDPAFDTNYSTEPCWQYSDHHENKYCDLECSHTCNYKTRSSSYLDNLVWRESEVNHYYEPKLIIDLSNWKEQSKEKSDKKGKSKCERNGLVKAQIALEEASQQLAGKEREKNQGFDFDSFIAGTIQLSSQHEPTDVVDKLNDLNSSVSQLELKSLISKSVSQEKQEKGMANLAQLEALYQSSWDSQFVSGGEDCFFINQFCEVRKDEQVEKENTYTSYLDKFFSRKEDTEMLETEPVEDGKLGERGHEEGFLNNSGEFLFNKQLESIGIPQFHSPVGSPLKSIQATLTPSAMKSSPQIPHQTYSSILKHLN

[34] = target: Phosphatidylinositol 4,5-bisphosphate 3-kinase catalytic subunit gamma isoform (Homo sapiens) (UniProt P48736)
[35] = tested on: Hepatocyte growth factor receptor (Homo sapiens), P08581 [M1250T]
[36] = target: Cyclin-dependent kinase 15 (Homo sapiens) (UniProt Q96Q40)
[37] = target: Tyrosine-protein kinase Yes (Homo sapiens) (UniProt P07947)
[38] = target: Serine/threonine-protein kinase 16 (Homo sapiens) (UniProt O75716)
Sequence of Serine/threonine-protein kinase 16 (Homo sapiens) (O75716 whole entry): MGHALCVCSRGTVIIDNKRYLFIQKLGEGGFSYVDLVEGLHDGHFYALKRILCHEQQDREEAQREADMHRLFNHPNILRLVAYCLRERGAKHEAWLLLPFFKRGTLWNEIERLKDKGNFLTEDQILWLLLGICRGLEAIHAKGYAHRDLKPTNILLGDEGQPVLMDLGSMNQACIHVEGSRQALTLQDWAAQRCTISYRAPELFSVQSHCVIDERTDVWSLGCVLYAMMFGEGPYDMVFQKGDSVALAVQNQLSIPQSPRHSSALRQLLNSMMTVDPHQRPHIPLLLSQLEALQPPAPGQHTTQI

[39] = target: Serine/threonine-protein kinase ULK1 (Homo sapiens) (UniProt O75385)
[40] = tested on: Receptor-type tyrosine-protein kinase FLT3 (Homo sapiens), P36888 [R834Q]
[41] = target: Mitogen-activated protein kinase kinase kinase 6 (Homo sapiens) (UniProt O95382)
[42] = target: NUAK family SNF1-like kinase 1 (Homo sapiens) (UniProt O60285)
[43] = tested on: Mast/stem cell growth factor receptor Kit (Homo sapiens), P10721 [A829P]
[44] = target: Dual specificity mitogen-activated protein kinase kinase 2 (Homo sapiens) (UniProt P36507)
[45] = tested on: Tyrosine-protein kinase ABL1 (Homo sapiens), P00519 [F317L]

Measured: residual activity

Sequence of Focal adhesion kinase 1 (Homo sapiens) (Q05397 2-1052 limits assumed): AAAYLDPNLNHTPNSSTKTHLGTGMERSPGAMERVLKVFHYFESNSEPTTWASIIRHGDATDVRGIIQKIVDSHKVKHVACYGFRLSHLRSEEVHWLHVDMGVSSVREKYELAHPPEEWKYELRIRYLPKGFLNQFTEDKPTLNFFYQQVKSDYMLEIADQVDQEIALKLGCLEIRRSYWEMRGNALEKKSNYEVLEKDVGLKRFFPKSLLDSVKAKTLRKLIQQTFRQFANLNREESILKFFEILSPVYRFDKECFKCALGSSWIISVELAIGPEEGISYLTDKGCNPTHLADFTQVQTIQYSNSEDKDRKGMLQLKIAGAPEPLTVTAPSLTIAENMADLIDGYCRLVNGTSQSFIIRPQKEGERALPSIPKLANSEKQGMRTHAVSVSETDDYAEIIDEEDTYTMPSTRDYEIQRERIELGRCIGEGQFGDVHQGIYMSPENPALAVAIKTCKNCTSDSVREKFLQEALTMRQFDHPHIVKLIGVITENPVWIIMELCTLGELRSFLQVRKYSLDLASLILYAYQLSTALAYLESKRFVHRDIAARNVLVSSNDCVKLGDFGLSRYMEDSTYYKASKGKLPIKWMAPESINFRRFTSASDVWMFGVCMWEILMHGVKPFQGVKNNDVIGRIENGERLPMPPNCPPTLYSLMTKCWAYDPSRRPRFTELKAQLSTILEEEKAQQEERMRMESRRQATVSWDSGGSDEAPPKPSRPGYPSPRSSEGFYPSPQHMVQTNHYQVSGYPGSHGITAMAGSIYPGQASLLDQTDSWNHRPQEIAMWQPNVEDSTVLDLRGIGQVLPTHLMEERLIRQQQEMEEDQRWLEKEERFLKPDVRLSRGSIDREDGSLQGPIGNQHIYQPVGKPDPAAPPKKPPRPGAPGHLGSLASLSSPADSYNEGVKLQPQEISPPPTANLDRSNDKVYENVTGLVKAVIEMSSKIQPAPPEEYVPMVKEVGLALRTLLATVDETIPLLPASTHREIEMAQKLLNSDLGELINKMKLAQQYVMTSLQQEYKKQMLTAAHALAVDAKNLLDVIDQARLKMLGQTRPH

CSc1cccnc1N1CCN(Cc2nc3ccccc3[nH]2)CC1 [A-769]
inactive: [1] 100% | [2] 100% | [3] 100% | [4] 100% | [5] 100% | [6] 98% | [7] 100% | [8] 100% | [9] 100% | [10] 99% | [11] 100% | [12] 90% | [13] 100% | [14] 100% | [15] 100% | [16] 80% | [17] 66% | [18] 85% | [19] 93% | [20] 59% | [21] 77% | [22] 100% | [23] 74% | [24] 100% | [25] 62% | [26] 99% | [27] 100% | [28] 100% | [29] 89% | [30] 96% | [31] 97% | [32] 68% | [33] 100% | [34] 64% | [35] 98% | [36] 100% | [37] 100% | [38] 100% | [39] 88% | [40] 100% | [41] 92% | [42] 100% | [43] 100% | [44] 70% | [45] 100%

c1ccc(N2CCN(Cc3nc4ccccc4[nH]3)CC2)nc1 [ABT-724]
inactive: [1] 100% | [2] 100% | [3] 100% | [4] 86% | [5] 100% | [6] 100% | [7] 100% | [8] 100% | [9] 96% | [10] 98% | [11] 90% | [12] 100% | [13] 90% | [14] 95% | [15] 100% | [16] 100% | [17] 100% | [18] 100% | [19] 86% | [20] 100% | [21] 78% | [22] 98% | [23] 97% | [24] 100% | [25] 100% | [26] 100% | [27] 78% | [28] 100% | [29] 100% | [30] 79% | [31] 100% | [32] 100% | [33] 100% | [34] 100% | [35] 100% | [36] 95% | [37] 100% | [38] 87% | [39] 100% | [40] 100% | [41] 98% | [42] 89% | [43] 100% | [44] 100% | [45] 100%
